Results reported in patent publication US5459049A, “Motilin-like polypeptide and use thereof” (priority 1989, dated 1995).

Target: upper small intestine of rabbit (Oryctolagus cuniculus, UniProt G1T803)
Details: from ED50, contraction activity of native motilin taken as 100%
Method: An intestinal contraction activity was measured by Magnus method using upper small intestine of rabbit ["J. Pharm. Pharmac.", Vol. 28, pages 650-651 (1976)], on each motilin-like polypeptides (Example 1, wherein R1 is Hse, Asp-Gly-Ile-Phe-Hse, or Arg-Ile-Phe-Hse) according to the invention, as test samples and a conventional pure [Leu^13 ]-motilin, as control sample. The activities of the test samples and control sample were compared, under assumption of that an contraction activity caused by 10^-6 M acetylcholine is 100%.

Sequence of upper small intestine of rabbit (G1T803 1-400): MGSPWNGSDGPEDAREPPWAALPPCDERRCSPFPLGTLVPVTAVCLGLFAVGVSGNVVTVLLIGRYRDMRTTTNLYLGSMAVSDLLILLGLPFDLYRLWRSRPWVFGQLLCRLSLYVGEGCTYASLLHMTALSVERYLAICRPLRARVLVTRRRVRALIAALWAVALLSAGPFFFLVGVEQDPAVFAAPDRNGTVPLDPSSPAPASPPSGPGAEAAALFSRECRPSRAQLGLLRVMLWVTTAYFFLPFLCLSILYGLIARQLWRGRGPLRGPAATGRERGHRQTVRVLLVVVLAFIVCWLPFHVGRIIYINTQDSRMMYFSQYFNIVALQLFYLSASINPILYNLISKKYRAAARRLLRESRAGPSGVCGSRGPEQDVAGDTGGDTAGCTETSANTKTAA

## CC[C@H](C)[C@H](NC(=O)[C@@H]1CCCN1C(=O)[C@@H](NC(=O)[C@@H](N)Cc1ccccc1)C(C)C)C(=O)N[C@@H](Cc1ccccc1)C(=O)N[C@H](C(=O)N[C@@H](Cc1ccc(O)cc1)C(=O)NCC(=O)N[C@@H](CCC(=O)O)C(=O)N[C@@H](CC(C)C)C(=O)N[C@@H](CCC(N)=O)C(=O)N[C@@H](CCCNC(=N)N)C(=O)N[C@@H](CCSC)C(=O)N[C@@H](CCC(N)=O)C(=O)N[C@@H](CCC(=O)O)C(=O)N[C@@H](CCCCN)C(=O)N[C@@H](CCC(=O)O)C(=O)N[C@@H](CCCNC(=N)N)C(=O)N[C@@H](CC(N)=O)C(=O)N[C@@H](CCCCN)C(=O)NCC(=O)N[C@@H](CCC(N)=O)C(=O)O)[C@@H](C)O [native motilin]
  Activity in vitro (%): 100%
